# Measurements from ChEMBL document CHEMBL5360558, “Molecular design, synthesis and anticancer activity of new thiopyrano[2,3-d]thiazoles based on 5-hydroxy-1,4-naphthoquinone (juglone)” (Eur J Med Chem, 2023).
# Activity calls are given as the source filed them. The rule behind the calls is not given here.
# What was measured:
# EKVX [1] = assay: Growth inhibition of human EKVX cells incubated for 48 hrs by sulforhodamine B spectrophotometric assay; assay type: functional
# HT-29 = assay: Growth inhibition of human HT-29 cells incubated for 48 hrs by sulforhodamine B spectrophotometric assay; assay type: functional
# SNB-75 = assay: Growth inhibition of human SNB-75 cells incubated for 48 hrs by sulforhodamine B spectrophotometric assay; assay type: functional
# A498 = assay: Growth inhibition of human A498 cells incubated for 48 hrs by sulforhodamine B spectrophotometric assay; assay type: functional
# UO-31 = assay: Growth inhibition of human UO-31 cells incubated for 48 hrs by sulforhodamine B spectrophotometric assay; assay type: functional
# PC-3 [2] = assay: Growth inhibition of human PC-3 cells incubated for 48 hrs by sulforhodamine B spectrophotometric assay; assay type: functional
# MOLT-4 = assay: Growth inhibition against human MOLT-4 cells assessed as total growth inhibitory concentration incubated for 48 hrs by sulforhodamine B spectrophotometric assay; assay type: functional
# SR = assay: Growth inhibition against human SR cells assessed as total growth inhibitory concentration incubated for 48 hrs by sulforhodamine B spectrophotometric assay; assay type: functional
# SW-620 = assay: Growth inhibition against human SW620 cells assessed as total growth inhibitory concentration incubated for 48 hrs by sulforhodamine B spectrophotometric assay; assay type: functional
# U-251 = assay: Growth inhibition against human U-251 cells assessed as total growth inhibitory concentration incubated for 48 hrs by sulforhodamine B spectrophotometric assay; assay type: functional
# SK-MEL-28 [3] = assay: Growth inhibition against human SK-MEL-28 cells assessed as total growth inhibitory concentration incubated for 48 hrs by sulforhodamine B spectrophotometric assay; assay type: functional
# UACC-257 = assay: Growth inhibition against human UACC-257 cells assessed as total growth inhibitory concentration incubated for 48 hrs by sulforhodamine B spectrophotometric assay; assay type: functional
# OVCAR-4 = assay: Growth inhibition against human OVCAR-4 cells assessed as total growth inhibitory concentration incubated for 48 hrs by sulforhodamine B spectrophotometric assay; assay type: functional
# SK-OV-3 = assay: Growth inhibition against human SK-OV-3 cells assessed as total growth inhibitory concentration incubated for 48 hrs by sulforhodamine B spectrophotometric assay; assay type: functional
# TK-10 = assay: Growth inhibition against human TK-10 cells assessed as total growth inhibitory concentration incubated for 48 hrs by sulforhodamine B spectrophotometric assay; assay type: functional
# PC-3 [4] = assay: Growth inhibition against human PC-3 cells assessed as total growth inhibitory concentration incubated for 48 hrs by sulforhodamine B spectrophotometric assay; assay type: functional
# DU-145 [5] = assay: Growth inhibition against human DU-145 cells assessed as total growth inhibitory concentration incubated for 48 hrs by sulforhodamine B spectrophotometric assay; assay type: functional
# CCRF-CEM [6] = assay: Growth inhibition against human CCRF-CEM cells assessed as lethal concentration incubated for 48 hrs by sulforhodamine B spectrophotometric assay; assay type: functional; settings: read-out: LC50 (the source's name)
# A549 = assay: Growth inhibition against human A549 cells assessed as lethal concentration incubated for 48 hrs by sulforhodamine B spectrophotometric assay; assay type: functional; settings: read-out: LC50 (the source's name)
# EKVX [7] = assay: Growth inhibition against human EKVX cells assessed as lethal concentration incubated for 48 hrs by sulforhodamine B spectrophotometric assay; assay type: functional; settings: read-out: LC50 (the source's name)
# HCT-116 = assay: Growth inhibition against human HCT-116 cells assessed as lethal concentration incubated for 48 hrs by sulforhodamine B spectrophotometric assay; assay type: functional; settings: read-out: LC50 (the source's name)
# SF-268 = assay: Growth inhibition against human SF-268 cells assessed as lethal concentration incubated for 48 hrs by sulforhodamine B spectrophotometric assay; assay type: functional; settings: read-out: LC50 (the source's name)
# MDA-MB-435 = assay: Growth inhibition against human MDA-MB-435 cells assessed as lethal concentration incubated for 48 hrs by sulforhodamine B spectrophotometric assay; assay type: functional; settings: read-out: LC50 (the source's name)
# SK-MEL-28 [8] = assay: Growth inhibition against human SK-MEL-28 cells assessed as lethal concentration incubated for 48 hrs by sulforhodamine B spectrophotometric assay; assay type: functional; settings: read-out: LC50 (the source's name)
# OVCAR-8 = assay: Growth inhibition against human OVCAR-8 cells assessed as lethal concentration incubated for 48 hrs by sulforhodamine B spectrophotometric assay; assay type: functional; settings: read-out: LC50 (the source's name)
# NCI/ADR-RES = assay: Growth inhibition against human NCI/ADR-RES cells assessed as lethal concentration incubated for 48 hrs by sulforhodamine B spectrophotometric assay; assay type: functional; settings: read-out: LC50 (the source's name)
# DU-145 [9] = assay: Growth inhibition against human DU-145 cells assessed as lethal concentration incubated for 48 hrs by sulforhodamine B spectrophotometric assay; assay type: functional; settings: read-out: LC50 (the source's name)
# BT-549 = assay: Growth inhibition against human BT-549 cells assessed as lethal concentration incubated for 48 hrs by sulforhodamine B spectrophotometric assay; assay type: functional; settings: read-out: LC50 (the source's name)
# [10] = Cytotoxicity against human HCT116-p53-null cells assessed as cell growth inhibition incubated for 72 hrs by MTT assay; assay type: functional, cell-based
# [11] = Cytotoxicity against human HaCaT cells assessed as cell growth inhibition incubated for 72 hrs by MTT assay; assay type: toxicity, cell-based; settings: HaCaT cells
# CCRF-CEM [12] = assay: Induction of cell cycle arrest in human CCRF-CEM cells assessed as accumulation of cells at S phase at 4.14 uM incubated for 24 hrs by propidium iodide staining based flow cytometry analysis (reference value: 41.09 +/- 0.5%); assay type: functional
# CCRF-CEM [13] = assay: Induction of cell cycle arrest in human CCRF-CEM cells assessed as accumulation of cells at M phase at 20.7 uM incubated for 24 hrs by propidium iodide staining based flow cytometry analysis (reference value: 1.97 +/- 0.042%); assay type: functional
# CCRF-CEM [14] = assay: Induction of cell cycle arrest in human CCRF-CEM cells assessed as DNA synthesis at 4.14 uM incubated for 2.5 hrs by BrdU incorporation based flow cytometry analysis (reference value: 42.4 +/- 0.66%); assay type: functional
# [15] = Acute toxicity in C57BL/6 mouse assessed as ratio of spleen weight to body weight at 20 mg/kg,ip administration and observed after 22 days (reference value: 0.53 +/- 0.18); assay type: organism-based; settings: in vivo, 528 h, time 22 day
# KB 3-1 [16] = assay: Antiproliferative activity against human KB 3-1 cells assessed as decrease in cell growth at 500 nM incubated for 72 hrs by crystal violet staining based assay; assay type: functional
# Salmon testes DNA = assay: Displacement of methyl green from salmon sperm DNA assessed as DNA intercalation at 10 uM incubated for 24 hrs by fluorescence plate reader method relative to control; assay type: nucleic-acid assay; settings: Salmo salar
# KB 3-1 [17] = assay: Induction of cell morphological changes in human KB 3-1 cells at 1 uM incubated for 24 hrs by Hoechst-33342 staining based fluorescent microscopy analysis; assay type: functional
# Jurkat = assay: Induction of apoptosis in human Jurkat cells assessed as DNA damage by DNA laddering assay; assay type: functional, cell-based
# MDA-MB-231 [18] = assay: Induction of apoptosis in human MDA-MB-231 cells at 5 uM incubated for 24 hrs by Annexin-V-FITC/propidium iodide staining based flow cytometry analysis (reference value: 8.9%); assay type: functional
# MDA-MB-231 [19] = assay: Induction of apoptosis in human MDA-MB-231 cells assessed as increase in caspase-8 level at 10 uM incubated for 24 hrs by flow cytometry analysis; assay type: functional
# MDA-MB-231 [20] = assay: Induction of mitochondrial membrane potential loss in human MDA-MB-231 cells at 5 uM incubated for 24 hrs by JC-1 staining based flow cytometry analysis; assay type: functional
# MDA-MB-231 [21] = assay: Induction of mitochondrial membrane potential loss in human MDA-MB-231 cells at 10 uM incubated for 24 hrs by JC-1 staining based flow cytometry analysis; assay type: functional
# MDA-MB-231 [22] = assay: Induction of apoptosis in human MDA-MB-231 cells assessed as increase in caspase 3/7 activity at 10 uM incubated for 24 hrs by flow cytometry analysis; assay type: functional
compound,measurement,setting,value
O=C1C2=C(C(=O)c3c(O)cccc31)C(c1ccco1)c1sc(=O)[nH]c1S2 (stereo not drawn),GI50,EKVX [1],6.75 µM
same,GI50,HT-29,3.3 µM
same,GI50,SNB-75,3.17 µM
same,GI50,A498,3.48 µM
same,GI50,UO-31,2.56 µM
same,GI50,PC-3 [2],2.75 µM
same,TGI,MOLT-4,9.88 µM
same,TGI,SR,69.5 µM
same,TGI,SW-620,10.5 µM
same,TGI,U-251,10.1 µM
same,TGI,SK-MEL-28 [3],3.72 µM
same,TGI,UACC-257,3.26 µM
same,TGI,OVCAR-4,3.95 µM
same,TGI,SK-OV-3,29.6 µM
same,TGI,TK-10,26.4 µM
same,TGI,PC-3 [4],21.6 µM
same,TGI,DU-145 [5],3.01 µM
same,CC50,CCRF-CEM [6],> 100 µM
same,CC50,A549,7.38 µM
same,CC50,EKVX [7],44.3 µM
same,CC50,HCT-116,> 100 µM
same,CC50,SF-268,> 100 µM
same,CC50,MDA-MB-435,5.26 µM
same,CC50,SK-MEL-28 [8],7.42 µM
same,CC50,OVCAR-8,36.2 µM
same,CC50,NCI/ADR-RES,> 100 µM
same,CC50,DU-145 [9],5.81 µM
same,CC50,BT-549,6.22 µM
same,IC50,[10],2.37 µM
same,IC50 at 72 h,[11],37.2 µM
same,Activity,CCRF-CEM [12],41.83%
same,Activity,CCRF-CEM [13],1.7%
same,Activity,CCRF-CEM [14],19.29%
same,Ratio,[15],0.51
same,Activity,KB 3-1 [16],Active
same,Activity,Salmon testes DNA,44.3%
same,Activity,KB 3-1 [17],Active
same,Activity,Jurkat,Active
same,Activity,MDA-MB-231 [18],11.7%
same,Activity,MDA-MB-231 [19],62.7%
same,Activity,MDA-MB-231 [20],15.7%
same,Activity,MDA-MB-231 [21],37.3%
same,Activity,MDA-MB-231 [22],20.6%
